Measurements as given in ChEMBL document CHEMBL4680185, “Discovery of novel cyclin-dependent kinase (CDK) and histone deacetylase (HDAC) dual inhibitors with potent in vitro and in vivo anticancer activity” (Eur J Med Chem, 2020).
The source made the active and inactive calls. No cut-off for these calls is given here.

Assays:
[1] = system: NCI-H460; assay: cells; type: functional; details: Homo sapiens, time 72 hrs, read-out: GI
[2] = system: HCT-116; assay: cells; type: functional; details: Homo sapiens, time 72 hrs, read-out: GI
[3] = system: NCI-H460; assay: cells; type: functional; details: Homo sapiens, time 72 hrs, read-out: GI; remark: listed apart in the source
[4] = system: HCT-116; assay: cells; type: functional; details: Homo sapiens, time 72 hrs, read-out: GI; remark: listed apart in the source
[5] = system: HCT-116; assay: cells; type: functional, cell-based; details: Homo sapiens, HCT-116, 72 h
Description: Antiproliferative activity against human HCT116 cells assessed as inhibition of cell growth incubated for 72 hrs by CCK-8 assay

[6] = system: HeLa; assay: cells; type: functional, cell-based; details: Homo sapiens, 72 h
Description: Antiproliferative activity against human Hela cells assessed as inhibition of cell growth incubated for 72 hrs by CCK-8 assay

[7] = system: SMMC-7721; assay: cells; type: functional, cell-based; details: Homo sapiens, SMMC-7721, 72 h
Description: Antiproliferative activity against human SMMC7721 cells assessed as inhibition of cell growth incubated for 72 hrs by CCK-8 assay

[8] = system: A-375; assay: cells; type: functional, cell-based; details: Homo sapiens, A-375, 72 h
Description: Antiproliferative activity against human A375 cells assessed as inhibition of cell growth incubated for 72 hrs by CCK-8 assay

[9] = system: NCI-H460; assay: cells; type: functional, cell-based; details: Homo sapiens, NCI-H460, 72 h
Description: Antiproliferative activity against human H460 cells assessed as inhibition of cell growth incubated for 72 hrs by CCK-8 assay

[10] = system: A-375; assay: Induction of apoptosis in human A375 cells assessed as number of apoptotic cells at 2 uM incubated for 48 hrs by annexin V-FITC/PI based flow cytometric analysis relative to control; type: functional
[11] = system: NCI-H460; assay: Antimigratory activity against human H460 cells assessed as inhibition of cell migration at 0.5 uM measured after 48 hrs by cell scratch assay; type: functional, cell-based
[12] = Cytotoxicity against mouse NIH/3T3 cells incubated for 72 hrs by CCK-8 assay; type: cell-based; details: NIH3T3, 72 h
[13] = system: HCT-116; assay: Induction of apoptosis in human HCT116 cells assessed as number of apoptotic cells at 2 uM incubated for 48 hrs by annexin V-FITC/PI based flow cytometric analysis relative to control; type: functional
[14] = molecular target: Histone deacetylase 2 (Homo sapiens, UniProt Q92769); assay: Inhibition of human recombinant HDAC2 preincubated for 10 mins followed by addition of substrate fluor De Lys green measured after 30 mins by fluorescent plate reader analysis
[15] = system: A-375; assay: Antimigratory activity against human A375 cells assessed as inhibition of cell migration at 0.25 uM measured after 48 hrs by cell scratch assay; type: functional, cell-based

Sequence of Histone deacetylase 2 (Q92769 whole entry): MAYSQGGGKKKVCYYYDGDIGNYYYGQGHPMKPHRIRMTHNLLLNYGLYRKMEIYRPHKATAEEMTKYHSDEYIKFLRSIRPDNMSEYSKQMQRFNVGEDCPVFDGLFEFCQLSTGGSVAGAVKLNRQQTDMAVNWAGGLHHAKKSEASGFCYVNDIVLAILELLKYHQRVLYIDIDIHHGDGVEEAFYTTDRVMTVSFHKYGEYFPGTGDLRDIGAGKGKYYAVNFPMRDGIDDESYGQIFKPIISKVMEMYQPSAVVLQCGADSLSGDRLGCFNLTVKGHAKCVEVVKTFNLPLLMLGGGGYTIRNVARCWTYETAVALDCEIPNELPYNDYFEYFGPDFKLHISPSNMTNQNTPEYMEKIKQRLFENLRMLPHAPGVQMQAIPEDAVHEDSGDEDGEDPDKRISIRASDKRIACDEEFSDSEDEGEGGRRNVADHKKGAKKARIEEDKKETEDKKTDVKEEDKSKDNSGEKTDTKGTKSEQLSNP

IC50 [5] [µM] | IC50 [6] [µM] | IC50 [7] [µM] | IC50 [8] [µM] | IC50 [9] [µM] | IC50 [14] [µM] | SMILES | inhibition of growth at 2 µM [1] [%] | inhibition of growth at 2 µM [2] [%] | inhibition of growth at 8 µM [3] [%] | inhibition of growth at 8 µM [4] [%] | Activity [10] [%] | inhibition [11] | IC50 [12] [µM] | Activity [13] [%] | inhibition [15]
– | – | – | – | – | – | Nc1ccccc1NC(=O)Cc1ccc(NC(=O)c2n[nH]cc2NC(=O)c2ccccc2)cc1 | 0.37 | 60 | 8.93 | 69.2 | – | – | – | – | –
– | – | – | – | – | – | O=C(NO)c1ccc(CNC(=O)c2n[nH]cc2NC(=O)c2ccccc2)cc1 | 12 | 29.4 | 31.6 | 61.7 | – | – | – | – | –
– | – | – | – | – | – | O=C(NO)c1ccc(CNC(=O)c2n[nH]cc2NC(=O)c2c(F)cccc2Cl)cc1 | – | – | 27.7 | 59.3 | – | – | – | – | –
– | – | – | – | – | – | O=C(Cc1ccc(NC(=O)c2n[nH]cc2NC(=O)c2ccccc2Cl)cc1)NO | 9.04 | 0.84 | 26.6 | 4.52 | – | – | – | – | –
– | – | – | – | – | – | COc1ccccc1C(=O)Nc1c[nH]nc1C(=O)Nc1ccc(CC(=O)Nc2ccccc2N)cc1 | 3.12 | 13.6 | 26.8 | 30.5 | – | – | – | – | –
– | – | – | – | – | – | O=C(CCCCCCNC(=O)c1n[nH]cc1NC(=O)c1c(F)cccc1Cl)NO | 0.88 | 10 | 28.7 | 15.7 | – | – | – | – | –
2.2 | 6.61 | 16.7 | 3.01 | 23.7 | – | O=C(NO)c1ccc(CNC(=O)c2n[nH]cc2NC(=O)c2ccccc2F)cc1 | 23.5 | 51 | 57.1 | 77 | – | – | – | – | –
– | – | – | – | – | – | O=C(Cc1ccc(NC(=O)c2n[nH]cc2NC(=O)c2c(F)cccc2F)cc1)NO | 0.04 | 29.9 | 30.2 | 25.6 | – | – | – | – | –
2.57 | 4.3 | 14.4 | 2.89 | 5.34 | – | Nc1ccccc1NC(=O)Cc1ccc(NC(=O)c2n[nH]cc2NC(=O)c2c(F)cccc2Cl)cc1 | 16.4 | 60.4 | 75.1 | 74.3 | – | – | – | – | –
– | – | – | – | – | – | O=C(Cc1ccc(NC(=O)c2n[nH]cc2NC(=O)c2ccccc2F)cc1)NO | 9.5 | 1.04 | 21.4 | 14.3 | – | – | – | – | –
– | – | – | – | – | – | O=C(CCCCCCNC(=O)c1n[nH]cc1NC(=O)c1c(Cl)cccc1Cl)NO | 17 | 1.07 | 17.9 | 20.1 | – | – | – | – | –
3.46 | 8.89 | 16.5 | 2.97 | 4.99 | – | Nc1ccccc1NC(=O)Cc1ccc(NC(=O)c2n[nH]cc2NC(=O)c2c(F)cccc2F)cc1 | 3.52 | 76.8 | 73.8 | 81.6 | – | – | – | – | –
2.77 | 14.9 | 25.6 | 4.11 | > 32 | 0.023 | Nc1ccc(F)cc1NC(=O)c1ccc(CNC(=O)/C=C/c2cccnc2)cc1 | 1.73 | 64.4 | 38.2 | 72.2 | 62.6 | Active | 2.46 | 44.3 | Active
– | – | – | – | – | – | O=C(CCCNC(=O)c1n[nH]cc1NC(=O)c1c(F)cccc1F)NO | 13 | 0.91 | 25.3 | 6.54 | – | – | – | – | –
– | – | – | – | – | – | O=C(NO)c1ccc(CNC(=O)c2n[nH]cc2NC(=O)c2c(F)cccc2F)cc1 | 0.46 | 25 | 7.33 | 64.5 | – | – | – | – | –
0.9 | 10.5 | 12.9 | 2.11 | 6.36 | – | Nc1ccccc1NC(=O)c1ccc(CNC(=O)c2n[nH]cc2NC(=O)c2ccccc2Cl)cc1 | 5.54 | 63.7 | 17.4 | 84.4 | – | – | – | – | –
– | – | – | – | – | – | COc1ccccc1C(=O)Nc1c[nH]nc1C(=O)Nc1ccc(CC(=O)NO)cc1 | 1.58 | 9.38 | 24.2 | 24.5 | – | – | – | – | –
